Test [1] has as its system Escherichia coli. In words: Antibacterial activity against Escherichia coli after 18 hrs by disk diffusion method. It counts as functional, organism-based. (In general: A growth-free zone around the sample is the usual read-out of agar diffusion tests.)
The subject of test [2] is Escherichia coli. In words: Antibacterial activity against Escherichia coli by micro dilution method. It counts as functional, organism-based.
In test [3] the test system is Aspergillus fumigatus. Nature of the test: Antifungal activity against Aspergillus fumigatus after 48 hrs by micro-broth dilution method. It counts as functional. A general note: In broth dilution the organism is exposed to a series of concentrations in liquid medium.
For test [4], the system named is Aspergillus niger. Nature of the test: Antifungal activity against Aspergillus niger after 48 hrs by micro-broth dilution method. It counts as functional.
Test [5] deals with Aspergillus flavus. In words: Antifungal activity against Aspergillus flavus after 48 hrs by micro-broth dilution method. The class given is functional.
The test system of test [6] is Aspergillus niger. Nature of the test: Antifungal activity against Aspergillus niger after 10 hrs by spore germination inhibition assay. The class given is functional.
For test [7], the system named is Aspergillus fumigatus. Nature of the test: Antifungal activity against Aspergillus fumigatus after 10 hrs by spore germination inhibition assay. The class given is functional.
In test [8] the test system is Aspergillus flavus. Nature of the test: Antifungal activity against Aspergillus flavus after 10 hrs by spore germination inhibition assay. The class given is functional.

In brackets after ≈: the same amount, converted by molar mass.

Molecule GENTAMICIN yielded an inhibition zone (IZ) in test [1] of 16 mm. In addition, the MIC in test [2] came to 1 µg.
Turning to `C[C@@H]1[C@H](O)[C@@H](C)/C=C/C=C/C=C/C=C/C=C/C=C/C=C/[C@H](O[C@@H]2O[C@H](C)[C@@H](O)[C@H](N)[C@@H]2O)C[C@@H]2O[C@](O)(C[C@@H](O)C[C@@H](O)[C@H](O)CC[C@@H](O)C[C@@H](O)CC(=O)O[C@H]1C)C[C@H](O)[C@H]2C(=O)O` [AMPHOTERICIN B], the MIC in test [3], in test [4], in test [5], in test [6], in test [7] and in test [8] was 5 µg/mL (≈ 5.41 µM) each time.
